{"source": "patent US20250197461A1", "about": "“Insect-derived short peptide for improving abscisic acid (ABA) content in cruciferous plant” (Gannan Normal University, priority 2023, published 2025)", "key": {"[1]": {"test_system": "Plutella xylostella larvae", "assay": "Plutella xylostella larvae fed on Arabidopsis thaliana treated with short peptide", "format": "in vivo", "conditions": "third-instar larvae fed on treated Arabidopsis thaliana for 3 days", "text": "(5) Biological Experimental Observation after GSS-PI Short Peptide Treatment with Arabidopsis thaliana. • 1) 60 newly molted third-instar larvae fed on artificial feed were divided into 3 groups, and 20 larvae in each group were fed on Arabidopsis thaliana plants treated with GSS-P1 short peptide or GFP control short peptide; • 2) In order to prevent plants from being damaged mechanically or influenced by external factors, a simple interactive biological observation device for insect-plant interaction was used to eliminate potential interference factors; • 3) After 3 days, the simple interactive biological observation device was opened, and the number of larvae (4th instar larvae) was observed and counted, the number of larvae surviving was recorded, and divided by the initial number of 20 larvae to obtain the daily survival rate of larvae."}, "[2]": {"test_system": "Arabidopsis thaliana leaves", "assay": "Non-targeted metabolomics of Arabidopsis thaliana leaves treated with short peptide", "format": "in vivo", "conditions": "0.01 mg/mL, vs GFP control", "method": "In this experiment, the materials used for metabonomics analysis and phytohormone detection are Arabidopsis thaliana samples with consistent growth status. Synthetic short peptide of GSS1-PI with the corresponding concentration and mass was weighed and dissolved in 0.1% DMSO to obtain a 0.01 mg/mL treatment solution. A wild-type Arabidopsis thaliana plant of about four weeks old was taken, two cotyledons were collected and mechanically damaged to obtain three small holes, 2 μL of the GSS1-PI solution was added dropwise into each small hole, while GFP solution was used as the control group. After 24 h and 48 h of treatment, approximately 0.2 g of Arabidopsis thaliana leaves were collected, and each treatment had three biological replicates. The leaves were quickly placed in liquid nitrogen and stored in a −80° C. ultra-low temperature refrigerator for subsequent phytohormone group detection and metabolomic analysis.\n100 mg of Arabidopsis thaliana leaves was taken and added with liquid nitrogen for full grinding, and the fine powder was put in a 1.5 mL centrifuge tube. 500 μL of 80% methanol aqueous solution was pipette in the centrifuge tube and subjected to vortex oscillation to mix well, and the centrifuge tube was put on ice for 5 min. After standing, the mixture was centrifuged at 15000 g at 4° C. for 20 min. Then, 200 μL of supernatant was pipette and diluted with appropriate amount of mass spectrometry water until the methanol content in the solution was 53%. The dilution was centrifuged again for 20 min, the supernatant was retained and loaded for LC-MS analysis of the sample.\nRelated instruments were set as follows: chromatographic column temperature: 40° C.; injection flow rate: 0.2 mL/min; Positive ion mode: 0.1% formic acid for mobile phase A; mass grade methanol for mobile phase B; Negative ion mode: 5 mM ammonium acetate for mobile phase A, and mass grade methanol for mobile phase B.\nThe scanning range was m/z 100-1500: the setting of ESI signal source was as follows: spray voltage: […]; sheath gas flow rate: 35 psi; auxiliary gas flow rate: 10 L/min; ion transport tube temperature: 320° C.; iontophoresis RF frequency: 60; auxiliary heater temperature: 350° C.; MS/MS secondary scanning is set to dependency scanning data.\nAfter the experiment was completed, the relevant data files were imported into the database search software for analysis and processing, and the residence time, mass-to-charge ratio and other related parameters of each metabolite were simply screened and checked. In order to identify more accurately, the different samples were peak-aligned, with the retention time deviation of 0.2 min and mass deviation of 5 ppm. Then peak extraction and peak area quantification were carried out to integrate the target ions, and then ion peaks were predicted by molecular formula and compared with local data. In order to remove the interference of background ions, the original quantitative results were standardized and blank sample controls were added. Finally, the relative quantitative results of the relevant metabolites were obtained and identified.\nMultivariate statistical analysis of metabolite data included two parts, component analysis (PCA) and partial least squares discriminant analysis (PLS-DA). The data was converted by metaX, a metabonomics processing software, to get the VIP value of each metabolite. In univariate analysis, the statistical significance (P value) between the two groups of metabolites was analyzed by t test, and the fold change of metabolites between the two groups, that is, FC value, was calculated. The default screening criteria for differential metabolites were VIP>1, P value<0.05 and FC≥2 or FC≤0.5."}}, "data": [{"sequence": "PDYKQKLRDSKAWESLETIGIPLDADVM (insect-derived short peptide) [GSS1-PI]", "values": [{"measurement": "mortality rate of larvae", "setting": "[1]", "value": "about 70%"}, {"measurement": "log2FC 2-Phenylacetamide", "setting": "[2]; 24 h", "value": 0.608}, {"measurement": "log2FC 3,4,5-Trimethoxycinnamic acid", "setting": "[2]; 24 h", "value": "−1.348"}, {"measurement": "log2FC (−)-chimonanthine", "setting": "[2]; 24 h", "value": 0.731}, {"measurement": "log2FC Coumarin", "setting": "[2]; 24 h", "value": "−1.039"}, {"measurement": "log2FC Cytosine", "setting": "[2]; 24 h", "value": 1.096}, {"measurement": "log2FC Eriodictyol", "setting": "[2]; 24 h", "value": 0.908}, {"measurement": "log2FC Gracillin", "setting": "[2]; 24 h", "value": "−1.823"}, {"measurement": "log2FC Hesperidin", "setting": "[2]; 24 h", "value": 0.708}, {"measurement": "log2FC Hippuric acid", "setting": "[2]; 24 h", "value": "−0.465"}, {"measurement": "log2FC L-arginine", "setting": "[2]; 24 h", "value": "−0.600"}, {"measurement": "log2FC Madecassic acid", "setting": "[2]; 24 h", "value": 1.041}, {"measurement": "log2FC Methyl dihydrojasmonate", "setting": "[2]; 24 h", "value": 0.784}, {"measurement": "log2FC N-Methyltryptamine", "setting": "[2]; 24 h", "value": "−0.651"}, {"measurement": "log2FC Ptaquiloside", "setting": "[2]; 24 h", "value": "−1.418"}, {"measurement": "log2FC Quercetin 3-O-sophoroside", "setting": "[2]; 24 h", "value": "−2.173"}, {"measurement": "log2FC Rhoifolin", "setting": "[2]; 24 h", "value": 0.699}, {"measurement": "log2FC Spectinomycin", "setting": "[2]; 24 h", "value": 0.579}, {"measurement": "log2FC Tiglic acid", "setting": "[2]; 24 h", "value": "−0.663"}, {"measurement": "log2FC cis-2-Decenoic acid", "setting": "[2]; 24 h", "value": "−0.599"}, {"measurement": "log2FC α-Linolenoyl ethanolamide", "setting": "[2]; 24 h", "value": 1.586}, {"measurement": "log2FC 2′-O-Methyladenosine", "setting": "[2]; 48 h", "value": 1.543}, {"measurement": "log2FC 3,4,5-Trimethoxycinnamic acid", "setting": "[2]; 48 h", "value": "−2.132"}, {"measurement": "log2FC 5α-Dihydrotestosterone glucuronide", "setting": "[2]; 48 h", "value": "−1.186"}, {"measurement": "log2FC 5′-Deoxy-5′-(Methylthio)Adenosine", "setting": "[2]; 48 h", "value": 1.330}, {"measurement": "log2FC 20-Hydroxyecdysone", "setting": "[2]; 48 h", "value": "−1.153"}, {"measurement": "log2FC Allantoic acid", "setting": "[2]; 48 h", "value": "−1.815"}, {"measurement": "log2FC Alpha-Mangostin", "setting": "[2]; 48 h", "value": 1.363}, {"measurement": "log2FC Benzamide", "setting": "[2]; 48 h", "value": 1.564}, {"measurement": "log2FC Camelliaside A", "setting": "[2]; 48 h", "value": 1.640}, {"measurement": "log2FC Cimifugin", "setting": "[2]; 48 h", "value": 1.872}, {"measurement": "log2FC Coumarin", "setting": "[2]; 48 h", "value": "−1.930"}, {"measurement": "log2FC Cucurbitacin E", "setting": "[2]; 48 h", "value": 1.309}, {"measurement": "log2FC DL-Methionine", "setting": "[2]; 48 h", "value": 1.393}, {"measurement": "log2FC DL-Panthenol", "setting": "[2]; 48 h", "value": 1.615}, {"measurement": "log2FC N-(p-Coumaroyl) serotonin", "setting": "[2]; 48 h", "value": "−1.010"}, {"measurement": "log2FC Neopterin", "setting": "[2]; 48 h", "value": 1.709}, {"measurement": "log2FC Saikosaponin B4", "setting": "[2]; 48 h", "value": "−1.655"}, {"measurement": "log2FC Sclareolide", "setting": "[2]; 48 h", "value": "−2.003"}, {"measurement": "log2FC Scopoletin", "setting": "[2]; 48 h", "value": "−1.518"}, {"measurement": "log2FC Sinapinic acid", "setting": "[2]; 48 h", "value": "−1.203"}]}]}
